Format in all cases: cell-based
Series [1] concerns A549 (Human type II epithelial cell line). Briefly: Cytotoxicity by MTT assay, A549 cells. Conditions: 48 h, incubation of 2 days, read-out: IC50 values, inhibition of growth of cells. The protocol:
(§1) The cell lines were used in the present invention, including C26 (solid murine colon carcinoma), A549 (Human type II epithelial cell line, from American Type Culture Collection, Manassas, Va.), MCF7 (solid human estrogen receptor positive breast carcinoma) and Tramp C1 (transgenic adenocarcinoma of the mouse prostate).
(§2) 10 μL combinatorial compound was added into the well of microtiterplate planted with 100 μL of abovementioned cell lines in a concentration of 30000 cells/mL. After an incubation of 2 days, the supernatants were washed, followed by adding MTT reagents. After 4 hrs, absorbance at 580 nm was recorded according to the usual protocol.
On the technique in general: Tetrazolium dyes change colour on reduction, which living cells bring about.

Series [2] concerns C26 (solid murine colon carcinoma). Briefly: Cytotoxicity by MTT assay, C26 cells. Conditions: Mus musculus, 48 h, incubation of 2 days, read-out: IC50 values, inhibition of growth of cells. As for the experimental part: as §1, §2
Series [3] deals with Tramp C1 (transgenic adenocarcinoma of the mouse prostate). The series is described as follows: Cytotoxicity by MTT assay, TRAMP C-1 cells. Conditions: for IC50: Mus musculus, TRAMP-C1, 48 h, TRAMP C-1 cells, MTT, incubation of 2 days, read-out: IC50 values, inhibition of growth of cells. As for the experimental part: as §1, §2
The subject of series [4] is MCF7 (solid human estrogen receptor positive breast carcinoma). Briefly: Cytotoxicity by MTT assay, MCF7 cells. The note with it: 48 h, incubation of 2 days, read-out: IC50 values, inhibition of growth of cells. As for the experimental part:
as §1, §2

For `O=C(O)CCC(=O)c1ccc(-c2ccccc2)cc1` [Fenbufen, 4-(biphenyl-4-yl)-4-oxobutanoic acid, reference compound], the IC50 in series [1], in series [2] and in series [3] was more than 100 µM in each case.
For the compound `Cc1ccc(C)c(OCCCC(C)(C)C(=O)NCCCCNC(=O)CCC(=O)c2ccc(-c3ccccc3)cc2)c1` [compound 12, N-(4-(4-(biphenyl-4-yl)-4-oxobutanamido)butyl)-5-(2,5-dimethylphenoxy)-2,2-dimethylpentanamide], the IC50 (commonly the point on the concentration scale where inhibition reaches its midpoint) in series [1] was found to be 9 µM; in series [4], 2 µM; in series [2], 15 µM; in series [3] it was 21 µM.
`CCCCC(CC)C(=O)NCCCCNC(=O)CCC(=O)c1ccc(-c2ccccc2)cc1` (stereo not shown) [compound 13, N-(4-(4-(biphenyl-4-yl)-4-oxobutanamido)butyl)-2-ethylhexanamide]: the IC50 in series [1] was 17 µM; in series [4] it was less than 1 µM; in series [2], 15 µM; in series [3] it was 18 µM.
For `C=C(CC)C(=O)c1ccc(OCC(=O)NCCCCNC(=O)CCC(=O)c2ccc(-c3ccccc3)cc2)c(Cl)c1Cl` [compound 14, 4-(biphenyl-4-yl)-N-(4-(2-(2,3-dichloro-4-(2-methylenebutanoyl)phenoxy)acetamido)butyl)-4-oxobutanamide], the IC50 in series [1] is 19 µM; in series [4], 5 µM; in series [2], 35 µM; in series [3], more than 100 µM. Moreover, the “cytotoxicity against Tramp C-1 cell” value in series [3] (Tramp C-1 cell, result in words) was “void of cytotoxicity”.

The values are drawn from patent publication US20110306668A1 (NATIONAL TSING HUA UNIVERSITY, priority 2010, published 2011).
